Measurements taken from US9962402B2, “Healing composition for topical application” (BIOPASS S.A., priority 2011, dated 2018).
“Also recorded” adds a separate entry of the source.

Test system: wound healing
Assay: Effect on wound healing (discovered in the context of the invention, no method given)
Assay type: in vivo
Details: present in a gel

## CCOCCOCCO [ethoxydiglycol]
  effect on wound healing: significantly slows wound healing; also recorded: significantly delays wound healing
